From patent US20250207131A1, “MODIFIED RNA AGENTS WITH REDUCED OFF-TARGET EFFECT” (Alnylam Pharmaceuticals, Inc., priority 2018, published 2025)
pIC50: −log10 of the molar value.

Columns and labels:
[1] = tested on: luciferase reporter plasmids (psiCHECK2, Renilla luciferase fused to target sequence); test: Off-target Dual-Glo luciferase reporter assay in COS-7 cells; format: cell-based
Method: Dual-Glo® Luciferase assay: Cos7 cells (ATCC, Manassas, VA) were grown to near confluence at 37° C. in an atmosphere of 5% CO2 in DMEM (ATCC) supplemented with 10% FBS, before being released from the plate by trypsinization. siRNA and psiCHCECK2 plasmid transfection was carried out by adding 5 μL of siRNA duplexes and 5 μL of psiCHECK2 plasmid per well along with 5 μL of Opti-MEM plus 0.1 μL of Lipofectamine 2000 per well (Invitrogen, Carlsbad CA. cat #13778-150) and then incubated at room temperature for 15 minutes. The mixture was then added to the cells which were re-suspended in 35 ul of fresh complete media. The transfected cells were incubated at 37° C. in an atmosphere of 5% CO2.
48 hours after the siRNAs and psiCHECK2 plasmid were transfected; Firefly (transfection control) and Renilla (fused to target sequence) luciferase were measured. First, media was removed from cells. Then Firefly luciferase activity was measured by adding 20 μL of Dual-Glo® Luciferase Reagent equal to the culture medium volume to each well and mix. The mixture was incubated at room temperature for 30 minutes before luminescence (500 nm) was measured on a Spectramax (Molecular Devices) to detect the Firefly luciferase signal. Renilla luciferase activity was measured by adding 20 μL of room temperature of Dual-Glo® Stop & Glo® Reagent was added to each well and the plates were incubated for 10-15 minutes before luminescence was again measured to determine the Renilla luciferase signal. The Dual-Glo® Stop & Glo® Reagent, quenches the firefly luciferase signal and sustained luminescence for the Renilla luciferase reaction. siRNA activity was determined by normalizing the Renilla signal to the Firefly (control) signal within each well. The magnitude of siRNA activity was then assessed relative to cells that were transfected with the same vector but were not treated with siRNA or were treated with a non-targeting siRNA. All transfections were done at n=2 or greater.

[2] = Temperature-dependent UV spectroscopy, Tm of modified siRNA duplexes; format: physicochemical; settings: 1 μM duplex, 0.25x PBS
Method: Temperature-dependent UV Spectroscopy: The melting studies were performed at a duplex concentration of 1 μM (consisting of the modified antisense […]) in 1 cm path length quartz cells on a Cary 300 spectrophotometer equipped with a thermoprogrammer. Each cuvette contained 800 μL of sample solution covered by 200 μL of light mineral oil. Melting curves were monitored at 260 nm with a heating rate of 1° C./min from 15-90° C. Melting temperatures (Tm) were calculated from the first derivatives of the smoothed heating curves and the reported values are the result of at least two independent measurements.

TTR = test: In vitro on-target activity, primary mouse hepatocytes, transfection, RT-qPCR (TTR siRNAs); format: cell-based; settings: for On-target TX: 10 nM, log2 transformed, relative to the parent
Method: Cell culture and transfections: Primary Mouse Hepatocytes (Thermo Fisher Scientific/Gibco) were transfected by adding 4.9 μL of Opti-MEM plus 0.1 μL of Lipofectamine RNAiMax per well (Invitrogen, cat #13778-150) to 5 μL of siRNA duplexes per well into a 384-well plate and incubated at room temperature for 15 minutes. 40 μL of Dulbecco's Modified Eagle Medium (Hep3b) or William's Medium (PMH) containing ˜5 ×10^3 cells were then added to the siRNA mixture. Cells were incubated for 24 hours at 37° C. and then processed for RNA purification. Experiments were performed at 10 nM and 0.1 nM doses of siRNA.
Total RNA isolation using DYNABEADS mRNA Isolation Kit: RNA was isolated using an automated protocol on a BioTek-EL406 platform using DYNABEADs (Invitrogen, cat #61012). Briefly, 70 μL of Lysis/Binding Buffer and 10 μL of lysis buffer containing 3 μL of magnetic beads were added to each well. Plates were incubated on an electromagnetic shaker for 10 minutes at room temperature and then magnetic beads were captured and the supernatant was removed. Bead-bound RNA was then washed 2 times with 150 μL Wash Buffer A and once with Wash Buffer B. Beads were then washed with 150 μL Elution Buffer, re-captured and supernatant removed.
cDNA synthesis using ABI High capacity cDNA reverse transcription kit (Applied Biosystems, cat #4368813): 12 μL of a master mix containing 1.2 μL 10× Buffer, 0.48 μL 25× dNTPs, 1.2 μL 10× Random primers, 0.6 μL Reverse Transcriptase, 0.6 μL RNase inhibitor and 7.92 μL of H2O per reaction was added to RNA isolated above. Plates were sealed, mixed, and incubated on an electromagnetic shaker for 10 minutes at room temperature, followed by 2 h 37° C.
Real time PCR: 2 μL of cDNA were added to a master mix containing 2 μL water, 0.5 μL of either an appropriate GAPDH TaqMan VIC Probe or the target probe and 5 μL Lightcycler 480 probe master mix (Roche, cat #04887301001) per well in a 384 well plate (Roche, cat #04887301001). Real time PCR was done in a LightCycler480 Real Time PCR system (Roche). Each duplex was tested in quadruplicate and data were normalized to cells transfected with a non-targeting control siRNA. To calculate relative fold change, real time data were analyzed using the ΔΔCt method and normalized to assays performed with cells transfected with a non-targeting control siRNA.
RT qPCR for Ttr mRNA quantification:_Primary mouse hepatocytes (PMH) were cultured in Williams E Medium with 10% fetal bovine serum. Transfection of cells using RNAiMAX reagent was done as per the manufacturer's recommended protocol. Thus, cells were thawed immediately prior to transfection and then plated onto 384-well plates with a seed density of ˜5000 cells/well. Pre-incubated lipid/siRNA complex (0.1 μL RNAiMax, siRNA, in 5 μL Opti-MEM for 15 min) was added to a 384-well collagen-coated plate (BioCoat; Corning) and cells were incubated for 20 h at 37° C. in an atmosphere of 5% CO2. Eight 6-fold serial dilutions ranging from 10 to 0.036 nM were used to perform dose response experiments. Media was removed before washing and lysing the cells. Using Dynabeads mRNA isolation kit according to manufacturer's protocol, RNA was extracted and subsequently reverse-transcribed with the ABI high capacity cDNA reverse transcription kit. Quantification was done by real-time PCR, whereby the cDNA (2 μL) was added to a master mix that contained 0.5 μL mouse Gapdh TaqMan Probe, 0.5 μL Ttr TaqMan probes, and 5 μL Lightcycler 480 probe master mix per well in a 384-well 50 plate. Real-time PCR was accomplished in an ABI 7900HT RT-PCR system using the ΔΔCt (RQ) assay. Each duplex and concentration was tested in four biological replicates. To calculate relative fold change, real time data were analyzed using the ΔΔCt method and normalized to assays performed with cells transfected with 10 nM nonspecific siRNA. IC50 values were calculated using a 4-parameter fit model using XLFit.

[3] = TTR-3, antisense strand modified at position 5, luciferase reporter, COS-7 cells
[4] = TTR-3, antisense strand modified at position 7, luciferase reporter, COS-7 cells
[5] = TTR-4, modification at antisense position 7, luciferase reporter plasmids co-transfected with siRNAs into COS-7 cells
[6] = antisense Position 5, Seq 3 (TTR)
[7] = antisense Position 7, Seq 3 (TTR)
[8] = antisense Position 7, Seq 4 (TTR)
[9] = TTR-3, antisense strand modified at position 5, primary mouse hepatocytes
[10] = TTR-3, antisense strand modified at position 7, primary mouse hepatocytes
[11] = TTR-4, modification at antisense position 7, primary mouse hepatocytes

In the case of 3′-(R)-Me-UNA [Mod 6 (R)], the pIC50 [1, 3] was under 7.30, the pIC50 [1, 4] was under 7.30 and the pIC50 [1, 5] was 8.54. For the same substance, the “Thermal melting temperature (Tm)” value [2, 6] was 84.1 °C, the “Thermal melting temperature (Tm)” value [2, 7] was 81.2 °C and the “Thermal melting temperature (Tm)” value [2, 8] was 82.0 °C. It also gave a pIC50 (TTR; [9]) of 11.80, a pIC50 (TTR; [10]) of 10.46 and a pIC50 (TTR; [11]) of 10.45. The “On-target TX” value (TTR; [6]) was −0.28, the “On-target TX” value (TTR; [7]) was 0.67 and the “On-target TX” value (TTR; [8]) was −0.98.

For 2′-(R)-Me-UNA [Mod 7 (R)], the pIC50 [1, 3] was under 7.30, the pIC50 [1, 4] was under 7.30 and the pIC50 [1, 5] was 8.79. The “Thermal melting temperature (Tm)” value [2, 6] was 84.0 °C, the “Thermal melting temperature (Tm)” value [2, 7] was 80.0 °C and the “Thermal melting temperature (Tm)” value [2, 8] was 82.1 °C. For the same substance, the pIC50 (TTR; [10]) was 10.73, the pIC50 (TTR; [11]) was 10.56 and the “On-target TX” value (TTR; [6]) was 0.50. The “On-target TX” value (TTR; [7]) was 0.15 and the “On-target TX” value (TTR; [8]) was −0.99.

Substance 2′-(S)-Me-UNA [Mod 7 (S)] has a pIC50 [1, 3] of under 7.30, a pIC50 [1, 4] of under 7.30 and a pIC50 [1, 5] of 8.87. The “Thermal melting temperature (Tm)” value [2, 6] was 84.3 °C, the “Thermal melting temperature (Tm)” value [2, 7] was 80.0 °C and the “Thermal melting temperature (Tm)” value [2, 8] was 83.0 °C. For the same substance, the pIC50 (TTR; [9]) was 11.60, the pIC50 (TTR; [10]) was 10.63 and the pIC50 (TTR; [11]) was 10.31. The “On-target TX” value (TTR; [6]) was 0.43, the “On-target TX” value (TTR; [7]) was 0.72 and the “On-target TX” value (TTR; [8]) was −0.79.

With 3′-(S)-Me-UNA [Mod 6 (S)] the pIC50 [1, 3] was under 7.30, the pIC50 [1, 4] was under 7.30 and the pIC50 [1, 5] was 8.44. For the same substance, the “Thermal melting temperature (Tm)” value [2, 6] was 84.0 °C, the “Thermal melting temperature (Tm)” value [2, 7] was 81.1 °C and the “Thermal melting temperature (Tm)” value [2, 8] was 82.0 °C. The pIC50 (TTR; [9]) was 11.50, the pIC50 (TTR; [10]) was 10.49 and the pIC50 (TTR; [11]) was 10.62. For the same substance, the “On-target TX” value (TTR; [6]) was 0.18, the “On-target TX” value (TTR; [7]) was 0.06 and the “On-target TX” value (TTR; [8]) was −0.31.

In the case of 5′-(R)-Me-UNA [Mod 5 (R)], the pIC50 [1, 3] was under 7.30, the pIC50 [1, 4] was under 7.30 and the pIC50 [1, 5] was 8.09. For the same substance, the “Thermal melting temperature (Tm)” value [2, 6] was 84.2 °C, the “Thermal melting temperature (Tm)” value [2, 7] was 80.3 °C and the “Thermal melting temperature (Tm)” value [2, 8] was 82.0 °C. For the same substance, the pIC50 (TTR; [9]) was 11.83, the pIC50 (TTR; [10]) was 10.86 and the pIC50 (TTR; [11]) was 10.05. For the same substance, the “On-target TX” value (TTR; [6]) was 0.45, the “On-target TX” value (TTR; [7]) was 0.50 and the “On-target TX” value (TTR; [8]) was −1.26.

Substance 5′-(S)-Me-UNA [Mod 5 (S)] has a pIC50 [1, 3] of under 7.30, a pIC50 [1, 4] of under 7.30 and a pIC50 [1, 5] of 8.06. For the same substance, the “Thermal melting temperature (Tm)” value [2, 6] was 84.2 °C, the “Thermal melting temperature (Tm)” value [2, 7] was 80.3 °C and the “Thermal melting temperature (Tm)” value [2, 8] was 82.0 °C. For the same substance, the pIC50 (TTR; [9]) was 11.96, the pIC50 (TTR; [10]) was 10.82 and the pIC50 (TTR; [11]) was 10.38. The “On-target TX” value (TTR; [6]) was −0.03, the “On-target TX” value (TTR; [7]) was −0.04 and the “On-target TX” value (TTR; [8]) was −0.97.
